4 compounds from patent US4530930A, “Antimicrobial 1-ethyl-6,8-difluoro-1,4-dihydro-7-(1-imidazolyl)-4-oxoquinoline-3-carbo xylic acid derivatives” (Kanebo, Ltd., priority 1982, dated 1985) can be followed below.

Data set [1] can be described thus: Bioavailability in oral administration in mice. The format is in vivo, ddY-strain male mice. The conditions noted are these: mice; for concentration at 0.5 h / concentration at 1 h / concentration at 2 h / concentration at 4 h / AUC at 4 h: mouse, serum, oral 50 mg/kg; for concentration at 0.5 h: after 30 min.; for concentration at 0.5 h / concentration at 1 h / concentration at 2 h / concentration at 4 h: read-out: Concentration in serum; for concentration at 1 h: after 60 min.; for concentration at 2 h: after 120 min.; for concentration at 4 h: after 240 min.; for AUC at 4 h: 1-4 hrs., read-out: AUC. As to the method:
Each of the test compounds was suspended in a 0.5% sodium carboxymethylcellulose to prepare a suspension having a concentration of 5 mg/ml of the compound.
ddY-strain male mice (5 week old, weighing 22 to 25 g, three per group) were used. The suspension was orally administered to mice fasted for 16 hours. The dose of the test compound was adjusted to 50 mg/kg of body weight of animal. 30, 60, 120, and 240 minutes after the administration of the test compound, blood was taken out from each mouse, and the blood sample thus obtained was centrifuged at 3,000 rpm for 20 minutes to obtain a serum sample.

In the next data set the test system is ddY-strain male mice. The data set is described as follows: in vivo. The conditions noted are these: 10080 min. The class given is in vivo. The procedure: (§1) The acute toxicities in oral administration and intravenous injection of the test compounds were tested as follows:
In intravenous administration: Each of the test compounds was dissolved in 1N aqueous sodium hydroxide solution and thereto was added a phosphoric acid-saline buffer (pH 7.2) to prepare a test solution. The test solution was intravenously injected to ddy-strain male mice (weighing 20-25 g, five per group). One week after the administration of the test solution, the LD50 was determined in accordance with Weil method.

Data set [2] can be described thus: Bioavailability in oral administration in rats. Particulars: rat, plasma, rats, oral; for concentration at 0.5 h: after 30 min.; for concentration at 0.5 h / concentration at 1 h / concentration at 2 h / concentration at 4 h: read-out: Concentration in plasma; for concentration at 1 h: after 60 min.; for concentration at 2 h: after 120 min.; for concentration at 4 h: after 240 min.; for AUC at 4 h: 1-4 hrs., read-out: AUC. The format is in vivo, Wistar-strain male rats. Further details: AUC at 4 h: concentration or dose not given beside the values. As to the method:
Each of the test compounds was suspended in a 0.5% sodium carboxymethylcellulose to prepare a suspension having a concentration of 5 mg/ml of the test compound.
Wistar-strain male rats (weighing 160 g ±20 g, three per group) were used. The suspension was orally administered to rats fasted 16 hours. 30, 60, 120, and 240 minutes after the administration of the test compound, blood was taken out from the rats. The blood was centrifuged at 3,000 rpm for 20 minutes to obtain a plasma sample. In the same manner as described in Experiment 2, the concentration (μg/ml) of test compound in plasma and also AUC (μg.hr/ml) were measured.

The next data set is described as follows: in vivo. Particulars: mouse, in vivo, po. As to the method: as §1
In oral administration: To ddY-strain male mice (weighing 20-25 g, five per group) was administered orally a suspension of each test compound in a 0.5% sodium carboxymethylcellulose. […] J. Biometric Soc., 8, 249 (1959)].

Data set [3] relates to Pseudomonas aeruginosa IFO 3445. The data set is described as follows: MIC. Particulars: IFO3445, gram negative, read-out: MIC. The class given is cell-based. As to the method:
(§2) In accordance with the method as disclosed in Chemotherapy, Vol. 29, pages 76-79 (1981), MIC (μg/ml) of each test compound was measured.

For data set [4], the system named is Staphylococcus aureus FDA 209P JC-1. As to the kind of experiment: MIC. The format is cell-based. The conditions noted are these: FDA209P, gram positive. As to the method: as §2
The subject of data set [5] is Staphylococcus epidermidis. As to the kind of experiment: MIC. The format is cell-based. The conditions noted are these: gram positive. The procedure:
as §2

Data set [6] deals with Salmonella paratyphi 1015. The data set is described as follows: MIC. The class given is cell-based. The conditions noted are these: Salmonella enterica. The procedure:
as §2

Data set [7] deals with Escherichia coli NIHJ JC-2. The data set is described as follows: MIC. The format is cell-based. Particulars: NIHJJC2, gram negative. The procedure: as §2
Data set [8] relates to Bacillus subtilis ATCC 6633. The data set is described as follows: MIC. The class given is cell-based. Particulars: ATCC6633, gram positive. The procedure: as §2
The test system of data set [9] is Serratia marcescens IAM 1184. As to the kind of experiment: MIC. The format is cell-based. The conditions noted are these: IAM1184, gram negative. As to the method: as §2
The subject of another data set is Proteus Vulgaris HX-19. As to the kind of experiment: MIC. The format is cell-based. The conditions noted are these: gram negative. The procedure: as §2
Data set [10] relates to Klebsiella pneumoniae PCI-602. The data set is described as follows: MIC. The class given is cell-based. Particulars: PCI602, gram negative. As to the method: as §2

Converted amounts (≈) assume the structure as drawn.

`CCn1cc(C(=O)O)c(=O)c2cc(F)c(-n3cnc(C)c3)c(F)c21` [I-b, 1-Ethyl-6,8-difluoro-1,4-dihydro-7-[1-(4-methylimidazolyl)]-4-oxoquinoline-3-carboxylic acid]: the concentration at 0.5 h in data set [1] stood at 49200 ± 2500 ng/mL; in data set [2], 58700 ± 5300 ng/mL. In addition, the values for the concentration at 1 h in data set [1] and in data set [2] were 29400 ± 2500 ng/mL and 62900 ± 6000 ng/mL, respectively. The concentration at 2 h in data set [1] stood at 10000 ± 800 ng/mL; in [2] it was 52000 ± 4000 ng/mL. Moreover, the concentration at 4 h came to 6300 ± 1100 ng/mL in [1] and 33500 ± 4900 ng/mL in data set [2]. The AUC at 4 h in data set [1] was determined as 67900 ng·h/mL; in [2], 188000 ng·h/mL. In addition, the LD50 in the data set with ddY-strain male mice (mouse, in vivo, iv) came out at 593 mg/kg. This compound yielded an LD50 at 168 h in “in vivo” above 4000 mg/kg. The MIC in [3] is 6.25 µg/mL (≈ 18.8 µM); in data set [4], 0.78 µg/mL (≈ 2.34 µM); in data set [5] it was 3.13 µg/mL (≈ 9.39 µM); in data set [6], 0.1 µg/mL (≈ 0.3 µM); in data set [7], 0.39 µg/mL (≈ 1.17 µM); in [8], 0.05 µg/mL (≈ 0.15 µM). Further, the results for the minimal inhibitory concentration (MIC) (in data set [9]; against Proteus Vulgaris HX-19; in data set [10]) were 3.13 µg/mL (≈ 9.39 µM), 0.025 µg/mL (≈ 0.075 µM) and 0.1 µg/mL (≈ 0.3 µM), respectively.

In the case of `CCn1cc(C(=O)O)c(=O)c2cc(F)c(N3CCN(C)CC3)cc21` [B, 1-ethyl-1,4-dihydro-6-fluoro-7-[1-(4-methylpiperazinyl)]-4-oxoquinoline-3carboxylic acid], the MIC in data set [3] amounted to 1.56 µg/mL (≈ 4.68 µM); in data set [4], 0.39 µg/mL (≈ 1.17 µM); in data set [5] it was 0.78 µg/mL (≈ 2.34 µM); in data set [6], 0.1 µg/mL (≈ 0.3 µM); in [7], 0.39 µg/mL (≈ 1.17 µM); in data set [8], 0.2 µg/mL (≈ 0.6 µM). Also, the MIC (against Proteus Vulgaris HX-19; in data set [10]) was 0.1 µg/mL (≈ 0.3 µM) each time.

As to `CC1COc2c(-n3ccnc3)c(F)cc3c(=O)c(C(=O)O)cn1c23` (centres unmarked) [F, 2,3-dihydro-9-fluoro-10-(1-imidazolyl)-3-methyl-7-oxo-7H-pyrido[1,2,3-de][1,4]benzoxazine-6-carboxylic acid], in [1] (oral, Experiment 2), the “bioavailability when administered orally, in words” value was “inferior to the compounds of the present invention in the bioavailability”. Further, in data set [1], the concentration at 0.5 h stood at 6400 ± 1800 ng/mL. In addition, the concentration at 1 h in [1] was determined as 2600 ± 1000 ng/mL. The concentration at 2 h in [1] came out at 1200 ± 300 ng/mL. In [1], the concentration at 4 h is 600 ± 200 ng/mL. Moreover, the AUC at 4 h in data set [1] worked out at 7500 ng·h/mL. Further, the MIC in data set [3] was 3.12 µg/mL (≈ 9.48 µM); in data set [4], 0.19 µg/mL (≈ 0.577 µM); in [5], 1.56 µg/mL (≈ 4.74 µM); in data set [6], 0.05 µg/mL (≈ 0.152 µM); in data set [7], 0.39 µg/mL (≈ 1.18 µM); in [8] it was 0.1 µg/mL (≈ 0.304 µM). The MIC in [9] was 3.12 µg/mL (≈ 9.48 µM); in the data set on Proteus Vulgaris HX-19 it was 0.025 µg/mL (≈ 0.0759 µM); in [10], 0.05 µg/mL (≈ 0.152 µM).

As for `CCn1cc(C(=O)O)c(=O)c2cc(F)c(-n3ccnc3)c(F)c21` [I-a, 1-Ethyl-6,8-difluoro-1,4-dihydro-7-(1-imidazolyl)-4-oxoquinoline-3-carboxylic acid], the concentration at 0.5 h in data set [1] is 44800 ± 8900 ng/mL; in data set [2] it was 54900 ± 3900 ng/mL. Further, the concentration at 1 h in data set [1] was determined as 39300 ± 5200 ng/mL; in [2] it was 70800 ± 3100 ng/mL. Moreover, the figures for the concentration at 2 h in data set [1] and in data set [2] were 7600 ± 1700 ng/mL and 48000 ± 4300 ng/mL, respectively. Further, the values for the concentration at 4 h in [1] and in [2] were 1700 ± 500 ng/mL and 31300 ± 3600 ng/mL, respectively. Besides, the area under the curve (AUC) at 4 h was 64900 ng·h/mL in [1] and 184000 ng·h/mL in [2]. This compound showed an LD50 in the data set with ddY-strain male mice (mice, i.v., one week, Weil method) of 773 mg/kg. The LD50 at 168 h in “in vivo” (mice, one week, Weil method) is above 4000 mg/kg. Besides, the MIC in [3] worked out at 6.25 µg/mL (≈ 19.6 µM); in data set [4], 0.39 µg/mL (≈ 1.22 µM); in [5], 3.13 µg/mL (≈ 9.8 µM); in data set [6] it was 0.05 µg/mL (≈ 0.157 µM); in data set [7], 0.2 µg/mL (≈ 0.626 µM); in [8] it was 0.1 µg/mL (≈ 0.313 µM). In addition, the results for the MIC (in data set [9]; against Proteus Vulgaris HX-19; in data set [10]) were 1.56 µg/mL (≈ 4.89 µM), 0.025 µg/mL (≈ 0.0783 µM) and 0.05 µg/mL (≈ 0.157 µM), respectively.
